Data published in patent US9247750B2, “Polyenylcyclopropanecarboxylic esters with high insecticidal activity” (Endura S.P.A., priority 2007, dated 2016).

Columns and labels:
Type in all cases: in vivo
Blattella germanica = assay: Effectiveness of residual insecticide on surfaces (glazed tiles) against cockroaches (Example 6); details: 50 mg/m^2 on glazed tiles, 24 h exposure
Method: Solutions of the compound of example 3 in acetone and, for comparison, of the reference compounds Transfluthrin and Metofluthrin were applied from a distance of 12 cm onto glazed tiles (Ostara model, 15×15 cm=225 cm^2) by means of a suitable glass sprayer, so as to obtain an applied amount of pure compound equal to 50 mg/m^2. After treatment the tiles were transferred to and maintained in a closed test room at controlled temperature and humidity (24-25° C., RH 50-60%). Glass rings (H 5.5 cm×Ø 9.5 cm), with their internal surface treated with talc, and each containing 5 cockroaches, were positioned at the centre of the tiles for each of the assessment times of 24 hours, 3, 7, 10 and 14 days following treatment. For each assessment day, the insects were maintained on the surface for 24 hours and the time (hours, minutes) necessary to attain 100% knock-down followed by death, or percentage knock-down at the end of 24 hours, were recorded.

Aedes aegypti [1] = assay: Insecticide effectiveness in the vapour phase against mosquitoes, impregnated paper unit in 20 m^3 room (Example 5); details: 5 mg/unit; for % mortality 24 h: 24th hour from start of test; for % Knock-down 8 h: at end of 8th hour; for Knock-down time KT10 / Knock-down time KT50 / Knock-down time KT90: average of 3 cages
Method: (§1) Test units consisting of a paper support 20 cm×10 cm in size were impregnated with the compound of example 3 and, for comparative purposes, with the reference compounds transfluthrin and metofluthrin, at an amount of 5.00 mg/unit for each compound (pure).
(§2) Using a common laboratory stand, the test unit was placed at a height of about 30 cm from the ground along one side of a 20 m^3 room (L 3.00 m×D 2.49 m×H 2.69 m). In order to homogenize the insecticidal air within the room, a small electric fan was placed on the floor diagonal to the surface of the unit, in the is nearest corner at a distance of about 50 cm from the unit. Three metal cages (L 8.4 cm×Ø 8.0 cm×mesh 1.0 mm) for every mosquito species, each containing 20 3-4 day old individuals of mixed sex, were placed along the other three sides of the room, at a height of 1.80 m from the ground and at a distance of 0.45 m from the respective walls. During the test the room was kept closed and temperature and humidity were controlled (T 23-26° C., RH 49-61%).
(§3) The fan was switched on and left on for 8 continuous hours. The times needed to reach 10%, 50% and 90% insect knock-down (KT10, KT50 and KT90, respectively) were recorded.
(§4) Every 2 hours and up to the 6th hour after the fan was switched on, new cages were introduced containing insects (set of 3 cages for each species).
(§5) At the end of the 8th hour, the percentage of insects knocked down in all the cages was determined, then the insects were removed from the room and transferred into an uncontaminated atmosphere within closed containers containing a sugary solution. The percentage mortality was recorded at the 24th hour from the start of the test.
(§6) The results obtained are summarized in tables 1 and 2 and the data are averages for the 3 cages.

Culex quinquefasciatus [2] = assay: as above; details: 5 mg/unit; for % mortality 24 h: 24th hour from start of test; for % Knock-down 8 h: at end of 8th hour; for Knock-down time KT10 / Knock-down time KT50 / Knock-down time KT90: average of 3 cages
Method: as §1, §2, §3, §4, §5, §6

Aedes aegypti [3] = assay: Insecticide effectiveness in the vapour phase against mosquitoes, impregnated paper unit in 20 m^3 room (Example 9); details: 5 mg/unit; for % mortality 24 h: 24th hour from start of test; for % Knock-down 8 h: at end of 8th hour; for Knock-down time KT10 / Knock-down time KT50 / Knock-down time KT90: average of 3 cages
Method: as §2, with “Test units consisting of a paper support 20 cm×10 cm in size were impregnated with the compound of examples 3, 7 and 8 and, for comparative purposes, with the reference compounds transfluthrin and metofluthrin, at an amount of 5.00 mg/unit for each compound (pure). Using” for “Using”, “the” for “the is”, “49-61%). The fan was switched on and left on for 8 continuous hours. The times needed to reach 10%, 50% and 90% insect knock-down (KT10, KT50 and KT90, respectively) were recorded.” for “49-61%).”
as §4, §5, §6

Culex quinquefasciatus [4] = assay: as above; details: 5 mg/unit; for % mortality 24 h: 24th hour from start of test; for % Knock-down 8 h: at end of 8th hour; for Knock-down time KT10 / Knock-down time KT50 / Knock-down time KT90: average of 3 cages
Method: as §2, with “Test units consisting of a paper support 20 cm×10 cm in size were impregnated with the compound of examples 3, 7 and 8 and, for comparative purposes, with the reference compounds transfluthrin and metofluthrin, at an amount of 5.00 mg/unit for each compound (pure). Using” for “Using”, “the” for “the is”, “49-61%). The fan was switched on and left on for 8 continuous hours. The times needed to reach 10%, 50% and 90% insect knock-down (KT10, KT50 and KT90, respectively) were recorded.” for “49-61%).”
as §4, §5, §6

CC1(C)[C@H](C=C(Cl)Cl)[C@H]1C(=O)OCc1c(F)c(F)cc(F)c1F [Transfluthrin, transfluthrin]
percentage knock-down after 24 hours (Blattella germanica; 1 day after treatment): 60%
percentage knock-down after 24 hours (Blattella germanica; 3 days after treatment): 24 h 0%
percentage knock-down after 24 hours (Blattella germanica; 7 days after treatment): 24 h 0%
% mortality 24 h (Aedes aegypti [1]; insect exposure after 0 hours): 100%
% Knock-down 8 h (Aedes aegypti [1]; insect exposure after 0 hours): 100%
Knock-down time KT10 (Aedes aegypti [1]; insect exposure after 0 hours): 21 min
Knock-down time KT50 (Aedes aegypti [1]; insect exposure after 0 hours): 26 min
Knock-down time KT90 (Aedes aegypti [1]; insect exposure after 0 hours): 36 min
% mortality 24 h (Aedes aegypti [1]; insect exposure after 2 hours): 100%
% Knock-down 8 h (Aedes aegypti [1]; insect exposure after 2 hours): 100%
Knock-down time KT10 (Aedes aegypti [1]; insect exposure after 2 hours): 5 min
Knock-down time KT50 (Aedes aegypti [1]; insect exposure after 2 hours): 9 min
Knock-down time KT90 (Aedes aegypti [1]; insect exposure after 2 hours): 12 min
% mortality 24 h (Aedes aegypti [1]; insect exposure after 4 hours): 100%
% Knock-down 8 h (Aedes aegypti [1]; insect exposure after 4 hours): 100%
Knock-down time KT10 (Aedes aegypti [1]; insect exposure after 4 hours): 4 min
Knock-down time KT50 (Aedes aegypti [1]; insect exposure after 4 hours): 7 min
Knock-down time KT90 (Aedes aegypti [1]; insect exposure after 4 hours): 10 min
% mortality 24 h (Culex quinquefasciatus [2]; insect exposure after 0 hours): 100%
% Knock-down 8 h (Culex quinquefasciatus [2]; insect exposure after 0 hours): 100%
Knock-down time KT10 (Culex quinquefasciatus [2]; insect exposure after 0 hours): 27 min
Knock-down time KT50 (Culex quinquefasciatus [2]; insect exposure after 0 hours): 37 min
Knock-down time KT90 (Culex quinquefasciatus [2]; insect exposure after 0 hours): 44 min
% mortality 24 h (Culex quinquefasciatus [2]; insect exposure after 2 hours): 100%
% Knock-down 8 h (Culex quinquefasciatus [2]; insect exposure after 2 hours): 100%
Knock-down time KT10 (Culex quinquefasciatus [2]; insect exposure after 2 hours): 7 min
Knock-down time KT50 (Culex quinquefasciatus [2]; insect exposure after 2 hours): 14 min
Knock-down time KT90 (Culex quinquefasciatus [2]; insect exposure after 2 hours): 20 min
% mortality 24 h (Culex quinquefasciatus [2]; insect exposure after 4 hours): 100%
% Knock-down 8 h (Culex quinquefasciatus [2]; insect exposure after 4 hours): 100%
Knock-down time KT10 (Culex quinquefasciatus [2]; insect exposure after 4 hours): 9 min
Knock-down time KT50 (Culex quinquefasciatus [2]; insect exposure after 4 hours): 17 min
Knock-down time KT90 (Culex quinquefasciatus [2]; insect exposure after 4 hours): 22 min
% mortality 24 h (Aedes aegypti [3]; insect exposure after 0 hours): 100%
% Knock-down 8 h (Aedes aegypti [3]; insect exposure after 0 hours): 100%
Knock-down time KT10 (Aedes aegypti [3]; insect exposure after 0 hours): 21 min
Knock-down time KT50 (Aedes aegypti [3]; insect exposure after 0 hours): 26 min
Knock-down time KT90 (Aedes aegypti [3]; insect exposure after 0 hours): 35 min
% mortality 24 h (Aedes aegypti [3]; insect exposure after 2 hours): 100%
% Knock-down 8 h (Aedes aegypti [3]; insect exposure after 2 hours): 100%
Knock-down time KT10 (Aedes aegypti [3]; insect exposure after 2 hours): 7 min
Knock-down time KT50 (Aedes aegypti [3]; insect exposure after 2 hours): 9 min
Knock-down time KT90 (Aedes aegypti [3]; insect exposure after 2 hours): 12 min
% mortality 24 h (Aedes aegypti [3]; insect exposure after 4 hours): 100%
% Knock-down 8 h (Aedes aegypti [3]; insect exposure after 4 hours): 100%
Knock-down time KT10 (Aedes aegypti [3]; insect exposure after 4 hours): 6 min
Knock-down time KT50 (Aedes aegypti [3]; insect exposure after 4 hours): 9 min
Knock-down time KT90 (Aedes aegypti [3]; insect exposure after 4 hours): 14 min
% mortality 24 h (Culex quinquefasciatus [4]; insect exposure after 0 hours): 100%
% Knock-down 8 h (Culex quinquefasciatus [4]; insect exposure after 0 hours): 100%
Knock-down time KT10 (Culex quinquefasciatus [4]; insect exposure after 0 hours): 31 min
Knock-down time KT50 (Culex quinquefasciatus [4]; insect exposure after 0 hours): 42 min
Knock-down time KT90 (Culex quinquefasciatus [4]; insect exposure after 0 hours): 55 min
% mortality 24 h (Culex quinquefasciatus [4]; insect exposure after 2 hours): 100%
% Knock-down 8 h (Culex quinquefasciatus [4]; insect exposure after 2 hours): 100%
Knock-down time KT10 (Culex quinquefasciatus [4]; insect exposure after 2 hours): 16 min
Knock-down time KT50 (Culex quinquefasciatus [4]; insect exposure after 2 hours): 25 min
Knock-down time KT90 (Culex quinquefasciatus [4]; insect exposure after 2 hours): 34 min
% mortality 24 h (Culex quinquefasciatus [4]; insect exposure after 4 hours): 100%
% Knock-down 8 h (Culex quinquefasciatus [4]; insect exposure after 4 hours): 100%
Knock-down time KT10 (Culex quinquefasciatus [4]; insect exposure after 4 hours): 11 min
Knock-down time KT50 (Culex quinquefasciatus [4]; insect exposure after 4 hours): 16 min
Knock-down time KT90 (Culex quinquefasciatus [4]; insect exposure after 4 hours): 24 min
